Results: patent US10144727B2, “Deoxynojirimycin derivatives and methods of their using” (priority 2013, dated 2018)
“Also recorded” adds a separate entry of the source.

Key:
[1] = test system: influenza A/Texas/36/91 (H1N1); assay: Efficacy of selected iminosugars in mice; Influenza A/Texas/36/91 (H1N1) challenge; type: in vivo, BALB/c mice; details: for Survival versus untreated/vehicle control group / Survival rate / MTD: 100 mg/kg oral TID for 10 days; for Survival rate / MTD: infected ~1 LD90
Experimental: (§1) Study Summary: This study analyzed the toxicity and efficacy of UV-8, UV-9, UV-10, UV-11, and UV-12 in mice during an H1N1 influenza infection. […] In the current study, we examined delivery doses of UV-4B. UV-8, UV-9, UV-10. UV-11 and UV-12 at 100 mg/kg, delivered ter in die by the oral route (intragastric via oral gavage or IG. Small groups (n=3) that were included to examine gross toxicity received 100 mg/kg of the iminosugars but without a viral challenge. UV-4B, UV-8. UV-9, UV-10. UV-11 or UV-12 was delivered to the animals starting at 1 hour before intranasal infection (IN) with ˜1 LD90 of influenza A/Texas/36/91 (H1N1). Animals were then treated TID for 10 days total (days 0-9 post infection). Efficacy was evaluated by comparing survival, temperature changes, and weight gain/loss to an infected untreated control group.
This study aimed to determine the efficacy of UV-8. UV-9, UV-10, UV-11, and UV-12 when administered orally at 100 mg/kg TID against a lethal intranasal infection with influenza virus A/Texas/36/91 (H1N1) in the BALB/c mouse model. In addition to the efficacy arm, each of the iminosugars was tested in a small group of animals with the same treatment regimen (100 mg/kg, oral gavage, TID) in the absence of a viral infection to examine gross toxicity of each analog (general health, weight, temperature, and mortality evaluations).
UV-8, -9, -10, -11, -12, and UV-4B were prepared in H2O at 20 mg/ml for a delivery dose of 100 mg/kg, assuming ˜20 g mice given 0.1 mL of compound. Groups of BALB/c mice were treated at one hour before (−1 h) intranasal infection with ˜1 LD90 of INFV A/Texas/36/91 (H1N1) and then compounds were administered three times daily for a total of 10 days (see Table 12 for study design summary). Weights, temperature, and survival were monitored and used for evaluation of protective efficacy and toxicity of each analog.
3. The groups of mice challenged with influenza were anesthetized with 5% Isofluorene and maintained at 2.5% prior to intranasal inoculation with ˜1 LD90 of INFV in 100 μL PBS.
1. Mice were treated starting at 1 hour before infection with 100 μL of compound in H2O (see Table 12 for dosing regimens) three times a day for 10 days total with 100 mg/kg of UV-4B, UV-8, UV-9, UV-10, UV-11, or UV-12 compound given by the oral route (intragastric via oral gavage). 2. After dosing, mice were returned to their cages and monitored for any distress related to dosing.
(§2) 1. Mice were observed through 13 days post infection (14 days total, 0-13 days post infection).
(§3) 2. Mice were weighed daily on an Ohause scale and the weights were recorded.
3. All animals had chips implanted that monitored the body temperature. The temperatures were recorded daily.
4. Survival and health of each mouse was evaluated three times a day using a scoring system of 1-7.
5. Mice were euthanized when scored at 5 or above (Very Sick; Very Rufftled Coat; Closed, inset eyes; Slow to no movement; Will return to upright position if put on its side; extremely lethargic).

[2] = test system: influenza A/Texas/36/91 (H1N1); assay: Efficacy of UV-12 and UV-28 against lethal INFV A/Texas/36/91 (H1N1) challenge in mice; type: in vivo, BALB/c mice; details: for % Survival / Mean Survival: ~1LD90 intranasal; for Health score recovery of infected mice: 100 mg/kg TID; for Weight recovery of infected mice: treated infected mice
Experimental: Study Summary: This study tested the ability of iminosugars UV-12 and UV-28 to protect mice from lethal influenza infection (˜1LD90 of influenza A/Texas/36/91 (H1N1) administered intranasally). Compounds were delivered 30-60 minutes prior to viral challenge via the oral (IG) route at 100 or 40 mg/kg and continued three times daily for 10 days. The mice used were ˜20 gram, 6-8 week old female BALB/c mice in groups of 10 for efficacy (a summary of the study groups is shown in Table 1). Temperature and weights were taken daily. Endpoint was day 14 post infection, death, or euthanasia. Animals displaying severe illness as determined by >30% weight loss, extreme lethargy, or paralysis were euthanized.
This study tested the ability of UV-12 and UV-28 to protect mice from lethal influenza infection. The mice used were 6-8 week old female BALB/c mice in groups of 10 (see Table 5 below). Mice were treated with 100 or 40 mg/kg three times daily (TID) via IG route starting approximately 30-60 minutes prior to challenge. Mice were challenged with ˜1 LD90 of influenza A/Texas/36/91 (H1N1) administered intranasally (IN). Endpoint was day 14 post infection, death, or euthanasia. Animals displaying severe illness as determined by >30% weight loss, extreme lethargy, or paralysis were euthanized. Temperature and weights were taken daily.
3. The groups of mice challenged with INFV were infected via intranasal (IN) inoculation with ˜1×LD90 in 100 μL of a 1:500 dilution of INFV in PBS under light anesthesia (Isoflurane).
1. Mice were treated with 100 or 40 mg/kg of test article given by the IG route in 100 μL of water (see Table 5 for dosing regimens) three times daily for 10 days.
as §2, §3
3. All animals had chips implanted at least 3 days prior to virus challenge that monitored the body temperature. The temperatures were recorded daily.
4. Survival and health of each mouse was evaluated once time a day using a scoring system of 1-7.
FIG. 1 is a plot presenting survival data of infected mice grouped by treatment. The survival data plotted in FIG. 1 were analyzed using the Mantel-Cox (Log rank) test in GraphPad Prism.

[3] = 100 mg/kg oral TID; for Survival without a viral challenge: uninfected, n=3
[4] = test system: DENV2 Strain S221; assay: Survival analysis of UV-12 in A129 ADE model of dengue infection; type: in vivo, A129 mice; details: 100 mg/kg/dose orally 3x per day for 7 days, first dose 1 hr before IV challenge
Excerpt: Purpose: This study determined the efficacy of UV-12 in promoting survival of mice challenged with dengue virus. Compound were given by the oral route (3× per day intragastric via oral gavage—IG) for a total number of 7 days after the start of dosing. The experiment used the A129 ADE model of infection. (Prestwood T R, Morar M M, Zellweger R M, Miller R, May M M, Yauch L E, Lada S M. Shresta S. Gamma interferon (IFN-γ) receptor restricts systemic dengue virus replication and prevents paralysis in IFN-α/β receptor-deficient mice. J Virol. 2012 December; 86(23):12561-70.) Animals received the virus challenge dose ˜1 LD90 on day 0. The first dose was given 0.5-1 hr pre-virus challenge. Survival was measured until 30 days after infection.
Mice: Sex matched 5-6 weeks old A129 (129/SV IFN-α, -β receptor^−/−)
Iminosugar: Orally 3× day, (gavage (IG)) every 8 hours
Antibody and Iminosugar Compound were given simultaneously, then virus within 30 minutes
Antibody: 100 μg 2H2 (IgG2a anti-DENV1-4 prM) from ATCC, day 0 and day 1 in 40 ul
Virus: DENV2 Strain S221 (v512) (Zellweger R M, Prestwood T R, Shresta S.
Dose: 1E11 GE (genomic equivalents) per animal
Animal survival. Animals displaying severe illness (as determined by 20% weight loss, extreme lethargy, ruffled coat, or paralysis) are euthanized.
FIG. 5 presents results of this study. […]

[5] = test system: H1N1; assay: Previous studies: oral UV-4B TID at 100 mg/kg against H1N1; type: in vivo; details: oral TID at 100 mg/kg
Experimental: as §1

Row | Structure (SMILES) | Survival versus untreated/vehicle control group [1] | Survival rate [1] | Survival without a viral challenge [3] | MTD [1] | further results
1 | OCC1C(O)C(O)C(O)CN1CCCCCCCCC1CCCO1 (mixture of isomers) [UV-12] | significant increase in survival | 90% | 100% |  | Overall temperature and weight versus vehicle control ([1]; 100 mg/kg oral TID, infected mice): significant increases in overall temperature and weight; % Survival ([2]; 40 mg/kg TID IG for 10 days): 20%; Mean Survival ([2]; 40 mg/kg TID IG for 10 days): 9 days; % Survival ([2]; 100 mg/kg TID IG for 10 days): 100%; Mean Survival ([2]; 100 mg/kg TID IG for 10 days): >13 days; Health score recovery of infected mice ([2]; FIG. 4): fully recovered from the infection and returned to normal; Weight recovery of infected mice [2]: almost completely recovered; Recovery after dosing regimen completed, uninfected mice [3]: able to fully recover; Toxicity in the uninfected group [3]: mild toxicity with steady weight loss; Weight loss overall in uninfected mice [3]: ≤ 10%; Survival compared to control animals [4]: increased survival
2 | COCCCCCCCCCN1C[C@H](O)[C@@H](O)[C@H](O)[C@H]1CO [UV-4B, N-9-methoxynonyl-deoxynojirimycin, reference compound] | significant increase in survival | 100% |  |  | Efficacy against H1N1 [5]: resulted in efficacy; Signs of toxicity [5]: did not show any discernible signs of toxicity
3 | COCCCCCCCCC(=O)N1C[C@H](O)[C@@H](O)[C@H](O)[C@H]1CO [UV-8] | did not show any improvement in survival; also recorded: no significant difference from the vehicle control group | 30% | 100% | 10.5 days | 
4 | COCCCCCCCOC(=O)N1C[C@H](O)[C@@H](O)[C@H](O)[C@H]1CO [UV-9] | did not show any improvement in survival | 0% | 100% | 7 days | 
5 | COC(=O)CCCCCCCCN1C[C@H](O)[C@@H](O)[C@H](O)[C@H]1CO [UV-10] | did not show any improvement in survival | 0% | 100% | 7.5 days | 
6 | OCCCCCCCCCN1C[C@H](O)[C@@H](O)[C@H](O)[C@H]1CO [UV-11] | did not show any improvement in survival | 0% | 100% | 8 days | 
7 | COC(C)(C)CCCCCCCCN1C[C@H](O)[C@@H](O)[C@H](O)[C@H]1CO [UV-28] |  |  |  |  | % Survival ([2]; 40 mg/kg TID IG for 10 days): 60%; Mean Survival ([2]; 40 mg/kg TID IG for 10 days): >13 days; % Survival ([2]; 100 mg/kg TID IG for 10 days): 100%; Mean Survival ([2]; 100 mg/kg TID IG for 10 days): >13 days; Health score recovery of infected mice ([2]; FIG. 4): never recovered their health score; Toxicity compared (health scores) ([2]; FIG. 4): more toxic than UV-12; Weight recovery of infected mice [2]: did not recover their weight as well
